N#CCc1ccccc1[N+](=O)[O-]
Conditions | solubility (mole fraction)
in 1,4-dioxane, 288.15 K | 0.216
in 1,4-dioxane, 293.15 K | 0.226
in 1,4-dioxane, 298.15 K | 0.241
in 1,4-dioxane, 303.15 K | 0.257
in 1,4-dioxane, 308.15 K | 0.278
in 1,4-dioxane, 313.15 K | 0.303
in 1,4-dioxane, 318.15 K | 0.334
in 1,4-dioxane, 323.15 K | 0.371
in 1,4-dioxane, 328.15 K | 0.414
in 1,4-dioxane, 333.15 K | 0.469
in 2-butanone, 278.15 K | 0.108
in 2-butanone, 283.15 K | 0.128
in 2-butanone, 288.15 K | 0.151
in 2-butanone, 293.15 K | 0.173
in 2-butanone, 298.15 K | 0.197
in 2-butanone, 303.15 K | 0.235
in 2-butanone, 308.15 K | 0.269
in 2-butanone, 313.15 K | 0.312
in 2-butanone, 318.15 K | 0.357
in 2-butanone, 323.15 K | 0.422
in 2-butanone, 328.15 K | 0.475
in 2-butanone, 333.15 K | 0.543
in acetic acid, 293.15 K | 0.0478
in acetic acid, 298.15 K | 0.0574
in acetic acid, 303.15 K | 0.0694
in acetic acid, 308.15 K | 0.0846
in acetic acid, 313.15 K | 0.104
in acetic acid, 318.15 K | 0.128
in acetic acid, 323.15 K | 0.158
in acetic acid, 328.15 K | 0.196
in acetic acid, 333.15 K | 0.244
in acetone, 278.15 K | 0.13
in acetone, 283.15 K | 0.147
in acetone, 288.15 K | 0.171
in acetone, 293.15 K | 0.194
in acetone, 298.15 K | 0.227
in acetone, 303.15 K | 0.259
in acetone, 308.15 K | 0.295
in acetone, 313.15 K | 0.342
in acetone, 318.15 K | 0.385
in acetone, 323.15 K | 0.439
in acetone, 328.15 K | 0.506
in acetonitrile, 278.15 K | 0.0932
in acetonitrile, 283.15 K | 0.107
in acetonitrile, 288.15 K | 0.124
in acetonitrile, 293.15 K | 0.143
in acetonitrile, 298.15 K | 0.168
in acetonitrile, 303.15 K | 0.195
in acetonitrile, 308.15 K | 0.228
in acetonitrile, 313.15 K | 0.264
in acetonitrile, 318.15 K | 0.31
in acetonitrile, 323.15 K | 0.362
in acetonitrile, 328.15 K | 0.424
in acetonitrile, 333.15 K | 0.498
in ethanol, 278.15 K | 0.00458
in ethanol, 283.15 K | 0.00566
in ethanol, 288.15 K | 0.00705
in ethanol, 293.15 K | 0.00939
in ethanol, 298.15 K | 0.0118
in ethanol, 303.15 K | 0.0156
in ethanol, 308.15 K | 0.0213
in ethanol, 313.15 K | 0.0277
in ethanol, 318.15 K | 0.0383
in ethanol, 323.15 K | 0.0487
in ethanol, 328.15 K | 0.0649
in ethanol, 333.15 K | 0.0838
in ethyl acetate, 278.15 K | 0.13
in ethyl acetate, 283.15 K | 0.142
in ethyl acetate, 288.15 K | 0.16
in ethyl acetate, 293.15 K | 0.177
in ethyl acetate, 298.15 K | 0.199
in ethyl acetate, 303.15 K | 0.219
in ethyl acetate, 308.15 K | 0.246
in ethyl acetate, 313.15 K | 0.278
in ethyl acetate, 318.15 K | 0.313
in ethyl acetate, 323.15 K | 0.357
in ethyl acetate, 328.15 K | 0.407
in ethyl acetate, 333.15 K | 0.466
in ethylbenzene, 278.15 K | 0.0237
in ethylbenzene, 283.15 K | 0.0285
in ethylbenzene, 288.15 K | 0.0346
in ethylbenzene, 293.15 K | 0.0423
in ethylbenzene, 298.15 K | 0.052
in ethylbenzene, 303.15 K | 0.0644
in ethylbenzene, 308.15 K | 0.0803
in ethylbenzene, 313.15 K | 0.101
in ethylbenzene, 318.15 K | 0.126
in ethylbenzene, 323.15 K | 0.16
in ethylbenzene, 328.15 K | 0.204
in ethylbenzene, 333.15 K | 0.26
in isobutanol, 278.15 K | 0.00332
in isobutanol, 283.15 K | 0.00416
in isobutanol, 288.15 K | 0.00491
in isobutanol, 293.15 K | 0.00639
in isobutanol, 298.15 K | 0.00803
in isobutanol, 303.15 K | 0.0102
in isobutanol, 308.15 K | 0.013
in isobutanol, 313.15 K | 0.0171
in isobutanol, 318.15 K | 0.0228
in isobutanol, 323.15 K | 0.0303
in isobutanol, 328.15 K | 0.0404
in isobutanol, 333.15 K | 0.0546
in isopropanol, 278.15 K | 0.00411
in isopropanol, 283.15 K | 0.00484
in isopropanol, 288.15 K | 0.00579
in isopropanol, 293.15 K | 0.00751
in isopropanol, 298.15 K | 0.00982
in isopropanol, 303.15 K | 0.0132
in isopropanol, 308.15 K | 0.0177
in isopropanol, 313.15 K | 0.0228
in isopropanol, 318.15 K | 0.03
in isopropanol, 323.15 K | 0.0384
in isopropanol, 328.15 K | 0.0492
in isopropanol, 333.15 K | 0.0627
in methanol, 278.15 K | 0.00641
in methanol, 283.15 K | 0.00842
in methanol, 288.15 K | 0.0105
in methanol, 293.15 K | 0.0131
in methanol, 298.15 K | 0.0174
in methanol, 303.15 K | 0.0235
in methanol, 308.15 K | 0.0305
in methanol, 313.15 K | 0.0395
in methanol, 318.15 K | 0.0514
in methanol, 323.15 K | 0.0661
in methanol, 328.15 K | 0.0842
in methanol, 333.15 K | 0.108
in n-butanol, 278.15 K | 0.00351
in n-butanol, 283.15 K | 0.00437
in n-butanol, 288.15 K | 0.00569
in n-butanol, 293.15 K | 0.00731
in n-butanol, 298.15 K | 0.00969
in n-butanol, 303.15 K | 0.0129
in n-butanol, 308.15 K | 0.0175
in n-butanol, 313.15 K | 0.0223
in n-butanol, 318.15 K | 0.0293
in n-butanol, 323.15 K | 0.0383
in n-butanol, 328.15 K | 0.0491
in n-butanol, 333.15 K | 0.0624
in n-propanol, 278.15 K | 0.00412
in n-propanol, 283.15 K | 0.00553
in n-propanol, 288.15 K | 0.00681
in n-propanol, 293.15 K | 0.00917
in n-propanol, 298.15 K | 0.0115
in n-propanol, 303.15 K | 0.0151
in n-propanol, 308.15 K | 0.0196
in n-propanol, 313.15 K | 0.0254
in n-propanol, 318.15 K | 0.0333
in n-propanol, 323.15 K | 0.0426
in n-propanol, 328.15 K | 0.0544
in n-propanol, 333.15 K | 0.0685
in toluene, 278.15 K | 0.0293
in toluene, 283.15 K | 0.0371
in toluene, 288.15 K | 0.0471
in toluene, 293.15 K | 0.0613
in toluene, 298.15 K | 0.0738
in toluene, 303.15 K | 0.0968
in toluene, 308.15 K | 0.123
in toluene, 313.15 K | 0.153
in toluene, 318.15 K | 0.195
in toluene, 323.15 K | 0.241
in toluene, 328.15 K | 0.303
in toluene, 333.15 K | 0.377
in water, 278.15 K | 3.75e-05
in water, 283.15 K | 4.65e-05
in water, 288.15 K | 5.57e-05
in water, 293.15 K | 6.69e-05
in water, 298.15 K | 8.19e-05
in water, 303.15 K | 0.000102
in water, 308.15 K | 0.000125
in water, 313.15 K | 0.000153
in water, 318.15 K | 0.000186
in water, 323.15 K | 0.000225
in water, 328.15 K | 0.000274
in water, 333.15 K | 0.000333

Reference: BigSolDB 2.1
